# Several values for one entry are separate records, joined by “and”; a condition that tells them apart may be missing. Equal values may be shown once. Entries after “also recorded” stand apart in the source; their conditions may differ. Read-outs that look alike come from different tables or passages of the source.
# Columns and labels:
# advanced solid tumors = experiment: Tumor response (RECIST 1.1) and PFS (Kaplan Meier); type: in vivo, human;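 further: patients were grouped by hepatic function into four groups, and PFS differences among these groups were tested with a log rank test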
# [1] = system: advanced cancer patients with varying degrees of hepatic dysfunction
# [2] = system: advanced cancer patients with varying degrees of hepatic dysfunction; details: human, in vivo
# [3] = dose normalized to 2 mg
# MEK1 = system: MEK1; set-up: method as in ref 17 (a number printed in a supplementary file, which may have a reference list of its own: not looked up in the article's list); details: read-out: IC50 against MEK1; cited from earlier work
# MEK2 = system: MEK2; set-up: method as in ref 17 (a number printed in a supplementary file, which may have a reference list of its own: not looked up in the article's list); details: read-out: IC50 against MEK2; cited from earlier work
# [4] = system: RAF-mediated MEK1 activation; set-up: method as in ref 19 (a number printed in a supplementary file, which may have a reference list of its own: not looked up in the article's list); details: read-out: IC50, inhibition of RAF-mediated MEK1 activation; cited from earlier work
# [5] = system: BRAF-mutant Colo205, A375P F11s, and HT-29 human tumor xenograft; details: 0.3 mg/kg; cited from earlier work
# [6] = cited from earlier work
# KRAS-mutant NSCLC = system: KRAS-mutant NSCLC; set-up: method as in ref 24 (a number printed in a supplementary file, which may have a reference list of its own: not looked up in the article's list); details: cited from earlier work
# [7] = system: untreated pancreatic cancer; set-up: method as in ref 25 (a number printed in a supplementary file, which may have a reference list of its own: not looked up in the article's list); details: gemcitabine plus trametinib 2 mg QD; cited from earlier work
# [8] = cited from earlier work; remark: listed apart in the source
# CYP 2B6 and 3A4 = details: cited from earlier work
# [9] = system: patients with advanced melanoma; details: cited from earlier work
smiles,measurement,setting,value
"CC(=O)Nc1cccc(-n2c(=O)n(C3CC3)c(=O)c3c(Nc4ccc(I)cc4F)n(C)c(=O)c(C)c32)c1 [Trametinib, equimolecular combination of acetamide, N-[3-[3-cyclopropyl-5-[(2-fluoro-4-iodophenyl)amino]-3,4,6,7-tetrahydro6,8-dimethyl-2,4,7-trioxopyrido[4,3-d]pyrimidin-1(2H)-yl]phenyl] with 1,1’-sulfinylbis[methane]]",duration of SD (range),advanced solid tumors; Mild,[…]
same,Best Response: Partial Response,advanced solid tumors; Mild DL1 2 mg,0 (0) n (%)
same,Best Response: Progressive Disease,advanced solid tumors; Mild DL1 2 mg,4 (66.7) n (%)
same,Best Response: Stable Disease,advanced solid tumors; Mild DL1 2 mg,2 (33.3) n (%)
same,Best Response: Stable Disease,"advanced solid tumors; Mild DL1 2 mg, listed as trametinib",2 (33.3%) n (%)
same,median PFS,advanced solid tumors; Mild group,1.74 months
same,Best Response: Partial Response,advanced solid tumors; Mod DL1 1.5 mg,0 (0) n (%)
same,Best Response: Progressive Disease,advanced solid tumors; Mod DL1 1.5 mg,1 (25.0) n (%)
same,Best Response: Stable Disease,advanced solid tumors; Mod DL1 1.5 mg,3 (75.0) n (%)
same,Best Response: Stable Disease,"advanced solid tumors; Mod DL1 1.5 mg, listed as trametinib",3 (75%) n (%)
same,Best Response: Partial Response,advanced solid tumors; Mod DL+1 2 mg,0 (0) n (%)
same,Best Response: Progressive Disease,advanced solid tumors; Mod DL+1 2 mg,1 (33.3) n (%)
same,Best Response: Stable Disease,advanced solid tumors; Mod DL+1 2 mg,2 (66.7) n (%)
same,Best Response: Stable Disease,"advanced solid tumors; Mod DL+1 2 mg, listed as trametinib",2 (66%) n (%)
same,median PFS,advanced solid tumors; Mod group,3.45 months
same,Best Response: Partial Response,advanced solid tumors; Norm 2 mg,2 (15.4) n (%)
same,Best Response: Progressive Disease,advanced solid tumors; Norm 2 mg,4 (30.8) n (%)
same,Best Response: Stable Disease,advanced solid tumors; Norm 2 mg,7 (53.8) n (%)
same,Best Response: Stable Disease,"advanced solid tumors; Norm 2 mg, listed as trametinib",7 (53.8%) n (%)
same,median PFS,advanced solid tumors; Norm group,3.62 months
same,Best Response: Partial Response,advanced solid tumors; Sev DL1 1 mg,0 (0) n (%)
same,Best Response: Progressive Disease,advanced solid tumors; Sev DL1 1 mg,1 (25.0) n (%)
same,Best Response: Stable Disease,advanced solid tumors; Sev DL1 1 mg,3 (75.0) n (%)
same,Best Response: Stable Disease,"advanced solid tumors; Sev DL1 1 mg, listed as trametinib",3 (75%) n (%)
same,Best Response: Partial Response,advanced solid tumors; Sev DL+1 1.5 mg,0 (0) n (%)
same,Best Response: Progressive Disease,advanced solid tumors; Sev DL+1 1.5 mg,1 (100%) n (%)
same,Best Response: Stable Disease,advanced solid tumors; Sev DL+1 1.5 mg,0 (0) n (%)
same,Best Response: Stable Disease,"advanced solid tumors; Sev DL+1 1.5 mg, listed as trametinib",0 (0%) n (%)
same,median PFS,advanced solid tumors; Sev group,2.11 months
same,Best Response: Partial Response,advanced solid tumors; Total,2
same,Best Response: Progressive Disease,advanced solid tumors; Total,12
same,Best Response: Stable Disease,advanced solid tumors; Total,17
same,Death related to TRAEs,[1]; Mild 2 mg,0 (0%)
same,Death related to TRAEs,[1]; Mod DL1 1.5 mg,0 (0%)
same,Death related to TRAEs,[1]; Mod DL+1 2 mg,0 (0%)
same,Death related to TRAEs,[1]; Norm 2 mg,0 (0%)
same,Death related to TRAEs,[1]; Sev DL1 1 mg,0 (0%)
same,Death related to TRAEs,[1]; Sev DL+1 1.5 mg,0 (0%)
same,Death related to TRAEs,[1]; Total Patients,0 (0%)
same,Death related to TRAEs,"[1]; Total Patients, listed as trametinib",No treatment related deaths
same,Alanine aminotransferase increased,"[1]; human, in vivo",9 (20%)
same,Anemia,"[1]; human, in vivo",10 (23%)
same,Blood alkaline phosphatase increased,"[1]; human, in vivo",9 (20%)
same,Grade 3 TRAEs,"[1]; human, in vivo",2 events
same,Hypertension,"[1]; human, in vivo",8 (18%)
same,Hypomagnesemia,"[1]; human, in vivo",8 (18%)
same,Hyponatremia,"[1]; human, in vivo",9 (20%)
same,Maculopapular rash,"[1]; human, in vivo",11 (23%)
same,Mucositis,"[1]; human, in vivo",6 (14%)
same,Thrombocytopenia,"[1]; human, in vivo",10 (23%)
same,Treatment discontinuation due to TRAEs,"[1]; human, in vivo",3 (7%)
same,Treatment discontinuation due to non-TRAEs,"[1]; human, in vivo",10 (23%)
same,Vomiting,"[1]; human, in vivo",9 (20%)
same,grade 3 gamma-glutamyl transferase increased,"[1]; human, in vivo",1 patient
same,grade 3 pneumonitis,"[1]; human, in vivo",1 patient
same,RP2D,[2],2 mg QD
same,"CLssF, Geo mean (%CV)",[3]; Mild (n = 6),5680.0 (45.5) mL/hr
same,"CLssF, Mean (±SD)",[3]; Mild (n = 6),6200.0 (±2818.6) mL/hr
same,"Cavg, Geo mean (%CV)",[3]; Mild (n = 6),14.7 (51.9) ng/mL
same,"Cavg, Mean (±SD)",[3]; Mild (n = 6),16.2 (±8.4) ng/mL
same,"Cmin, Geo mean (%CV)",[3]; Mild (n = 6),10.8 (57.3) ng/mL
same,"Cmin, Mean (±SD)",[3]; Mild (n = 6),12.1 (±7.0) ng/mL
same,"CLssF, Geo mean (%CV)",[3]; Mod (n = 3),6431.6 (8.4) mL/hr
same,"CLssF, Mean (±SD)",[3]; Mod (n = 3),6446.4(±542.6) mL/hr
same,"Cavg, Geo mean (%CV)",[3]; Mod (n = 3),13.0 (8.1) ng/mL
same,"Cavg, Mean (±SD)",[3]; Mod (n = 3),13.0 (±1.1) ng/mL
same,"Cmin, Geo mean (%CV)",[3]; Mod (n = 3),10.4 (22.4) ng/mL
same,"Cmin, Mean (±SD)",[3]; Mod (n = 3),10.5 (±2.4) ng/mL
same,"CLssF, Geo mean (%CV)",[3]; Norm (n = 10),4449.0 (36.0) mL/hr
same,"CLssF, Mean (±SD)",[3]; Norm (n = 10),4675.0 (±1683.6) mL/hr
same,"Cavg, Geo mean (%CV)",[3]; Norm (n = 10),18.7 (28.1) ng/mL
same,"Cavg, Mean (±SD)",[3]; Norm (n = 10),19.5 (±5.5) ng/mL
same,"Cmin, Geo mean (%CV)",[3]; Norm (n = 10),14.4 (29.8) ng/mL
same,"Cmin, Mean (±SD)",[3]; Norm (n = 10),15.1 (±4.5) ng/mL
same,"CLssF, Geo mean (%CV)",[3]; Sev (n = 3),8736.3 (36.5) mL/hr
same,"CLssF, Mean (±SD)",[3]; Sev (n = 3),9141.3 (±3337.1) mL/hr
same,"Cavg, Geo mean (%CV)",[3]; Sev (n = 3),9.5 (36.4) ng/mL
same,"Cavg, Mean (±SD)",[3]; Sev (n = 3),10.0 (±3.6) ng/mL
same,"Cmin, Geo mean (%CV)",[3]; Sev (n = 3),7.6 (32.3) ng/mL
same,"Cmin, Mean (±SD)",[3]; Sev (n = 3),7.9 (±2.5) ng/mL
same,"differences of PK parameters (Cmax, Cmin, Cavg, AUC0 − 24) between hepatic function groups",[3]; ANOVA,no significant differences; also recorded: not statistically different
same,IC50,MEK1,0.7 nM
same,IC50,[4],0.6 nM
same,tumor regression in the Colo205 model,[5],tumor regression was observed
same,Cmax,[6]; 2 mg QD on Day 15,23 ng/mL
same,mean AUC0-24,[6]; 2 mg QD on Day 15,376 ng·h/mL
same,"Between-subject variability in exposure, AUC0-24",[6]; across all dosing regimens,20-41%
same,"Between-subject variability in exposure, Cmax",[6]; across all dosing regimens,27-50%
same,effective t1/2,[6]; in vivo,approximately 4.5 days
same,steady state reached by,[6]; in vivo,~15 days
same,median PFS,KRAS-mutant NSCLC,11.7 weeks
same,overall response rate (ORR),KRAS-mutant NSCLC,12%
same,Median OS,[7],8.4 months
same,ORR,[7],22%
same,median PFS,[7],16 weeks
same,"fecal excretion, of the radioactive dose",[8]; 2 subjects,39.2% and 35.0%
same,"fecal excretion, of excreted radioactivity recovered",[8]; oral dose,> 80%
same,"urinary excretion, of excreted radioactivity recovered",[8]; oral dose,< 19%
same,"urinary excretion, of the radioactive dose",[8]; oral dose,< 10%
same,CYP 2B6 and 3A4 inducer,CYP 2B6 and 3A4,weak
same,Cardiomyopathy resolved,[9]; 10 of 14 patients,71%
same,Pruritis,[9]; All Grades,10%
same,Stomatitis,[9]; All Grades,15%
same,Pruritis,[9]; Grades 3 and 4,2%
same,Stomatitis,[9]; Grades 3 and 4,2%
same,Dose reduction required for skin toxicities,[9]; in vivo,12%
same,Severe skin toxicity,[9]; in vivo,12%
same,overall incidence of skin toxicity,[9]; in vivo,87%
same,permanent discontinuation for skin toxicities,[9]; in vivo,1%
same,median time to onset of skin toxicity,[9]; range: 1 to 221 days,15 days
same,median time to resolution of skin toxicity,[9]; range: 1 to 282 days,48 days
